Here are results for 16 compounds from patent US11339185B2, “Cyclic dinucleotides as anticancer agents” (Bristol-Myers Squibb Company, priority 2018, dated 2022).

Assay [1] deals with T1, STING AQ: His-TVMV-S-hSTING(155-341)-G230A-R293Q (Homo sapiens, UniProt Q86WV6, G230A/H232R/R293Q).
T1 construct: STING AQ: His-TVMV-S-hSTING(155-341)-G230A-R293Q
Briefly: STING HTRF binding assay (time resolved FRET competition), STING AQ. The following applies: 20 nM His-tagged STING AQ cytoplasmic domain, 40 nM fluorescein-labeled cGAMP analog probe, one hour; read-out: HTRF Binding Assays IC50 (μM) AQ. As for the experimental part: (§1) A time resolved FRET-based competition binding assay was used to assess test article binding to STING WT and STING AQ. His-tagged STING cytoplasmic domain (WT or AQ) at a concentration of 20 nM was incubated with 2.5 nM Tb-labeled anti-His antibody, test compound, and fluorescein-labeled cGAMP analog probe (BioLog cat. no. C195) at a concentration of 200 nM (STING WT) or 40 nM (STING AQ) in PBS containing 0.005% Tween-20 and 0.1% BSA for one hour. Fluorescence at 495 nm and 520 nm was measured using an EnVision microplate reader to quantify FRET between Tb-labeled anti-His antibody and fluorescein-labeled probe. Background was defined as the signal obtained in the absence of STING protein, and background subtracted FRET ratios were normalized to the maximum signal obtained in the absence of test compound. These values were converted to a percent inhibition. Percent inhibition was determined for test compounds at 11 concentrations. The IC50, defined as the concentration of competing test compound needed to reduce specific binding of the probe by 50%, was calculated using the 4 parameter logistic equation to fit the data

Assay [2] relates to THP1-Dual cells, NF-κB pathway. The experiment in a line: STING THP1 Reporter Assay, NF-κB pathway (SEAP, QUANTI-Blue). Type of assay: cell-based. The following applies: 10% human plasma, SEAP readout (OD620), 100% activation = 100 μM cGAMP, read-out: THP1 Reporter Assays EC50 (μM) NFkB. An excerpt:
(§2) THP1-Dual™ cells were derived from the human THP-1 monocyte cell line by stable integration of two inducible reporter constructs. To this end, THP1-Dual™ cells allow the simultaneous study of the NF-κB pathway, by monitoring the activity of SEAP, and the IRF pathway by assessing the activity of a secreted luciferase (Lucia). Both reporter proteins are readily measurable in the cell culture supernatant when using QUANTI-Blue™, a SEAP detection reagent, and QUANTI-Luc™, a luciferase detection reagent.
(§3) THP1-Dual™ cells induce the activation of NF-κB in response to STING agonists. They also trigger the IRF pathway upon stimulation with STING agonists, such as cGAMP. Here, the THP-1-Dual cells were used to assess STING binders for function on the cellular level.
(§4) Serial dilutions of compounds in DMSO were added to low volume 384 well plates at 100 nl/well using an ECHO acoustic dispenser (Labcyte, model 550) to achieve final starting concentration of 100 μM in cell suspension. THP-1 Dual™ STING reporter cells (Invivogen, Dual cells cat #THPD-nfis) were added to the plates with compounds at 15,000 cells in 10 μL per well in RPMI media (Gibco, cat #11875) containing 10% human plasma in a low volume 384-well black wall clear bottom tissue culture plate (Corning, cat #3542) for SEAP assay and low volume solid white plate (Corning, cat #3826) for luciferase assay. One column of the plate was reserved for treatment with cGAMP at 100 μM for 100% activation calculation and one column for no treatment (DMSO only) for baseline activation. Plates were then incubated in 37 OC incubator at 5% CO2 for 20 hours.
(§5) In the SEAP assay, 5 μl of 2× QuantiBlue (Invivogen, cat #Rep-qb2) is added to 384 well black plates seeded with THP1 cells and incubated at 37° C. for 2 hours. Plates were read on the Envision (Perkin Elmer) at 620 nm wavelength (OD620). In the luciferase assay, 5 μl of Quantiluc (Invivogen, Rep-qlc2) is added to white 384 well plates seeded with THP1 cells and read at 5 minutes on the Envision (Perkin Elmer) using a luminescence protocol (RLU). For both cell lines, 100% activation was determined by value (RLU) of THP-1 Dual STING cells stimulated with 100 μM cGAMP (Invivogen, cat #TLRL-NACGA23-5).

In assay [3] the target is T2, STING WT: His-TVMV-S-hSTING(155-341)-H232R (Homo sapiens, UniProt Q86WV6, H232R).
T2 construct: STING WT: His-TVMV-S-hSTING(155-341)-H232R
The experiment in a line: STING HTRF binding assay (time resolved FRET competition), STING WT. The following applies: 20 nM His-tagged STING WT cytoplasmic domain, 200 nM fluorescein-labeled cGAMP analog probe, one hour; read-out: HTRF Binding Assays IC50 (μM) WT. As for the experimental part: as §1

Assay [4] concerns THP1-Dual cells, IRF pathway (IRF3). Briefly: STING THP1 Reporter Assay, IRF pathway (secreted Lucia luciferase, QUANTI-Luc). The format is cell-based. The following applies: 10% human plasma, luciferase readout, 100% activation = 100 μM cGAMP, read-out: THP1 Reporter Assays EC50 (μM) IRF3.
Excerpt: as §2, §3, §4, §5

Like-named read-outs stand apart in the source and are kept apart here.

T1 sequence (Q86WV6 with tags, fused parts or gaps G230A/H232R/R293Q): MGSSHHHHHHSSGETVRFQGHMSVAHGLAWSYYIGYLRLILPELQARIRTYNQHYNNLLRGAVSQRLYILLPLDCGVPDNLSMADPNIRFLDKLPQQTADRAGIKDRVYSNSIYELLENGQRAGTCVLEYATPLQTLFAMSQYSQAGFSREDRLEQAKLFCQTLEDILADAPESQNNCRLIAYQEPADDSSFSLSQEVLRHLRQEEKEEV
T2 sequence (Q86WV6 with tags, fused parts or gaps H232R): as the sequence (Q86WV6 with tags, fused parts or gaps G230A/H232R/R293Q) above, with A99G, Q162R counted along it

In the case of `O=P1(S)OC[C@@H]2[C@@H](COP(=O)(S)O[C@H]3[C@@H](F)[C@H](n4cnc5c4ncn4ccnc54)O[C@@H]3CO1)C[C@H]2n1cnc2c(Cl)ncnc21` (single isomer, unassigned) [Example 18-1], the IC50 was 26.4 µM in assay [1] and more than 100 µM in assay [3]. Besides, the EC50 was more than 100 µM in assay [2] (Homo sapiens, THP1-Dual, 20 h) and more than 100 µM in assay [4] (Homo sapiens, THP1-Dual, 20 h).

For `NC(=O)c1cc([C@@H]2C[C@@H]3COP(O)(=S)O[C@H]4[C@@H](F)[C@H](n5cnc6c(N)ncnc65)O[C@@H]4COP(=O)(O)OCC32)ccn1` (single isomer, unassigned) [Example 14], the results for the IC50 in assay [1] and in assay [3] were 7.78 µM and more than 100 µM, respectively. The EC50 was more than 100 µM in assay [2] (Homo sapiens, THP1-Dual, 20 h) and more than 100 µM in assay [4] (Homo sapiens, THP1-Dual, 20 h).

Regarding `Nc1ncnc2c1ncn2[C@@H]1C[C@@H]2COP(=O)(S)O[C@H]3[C@@H](O)[C@H](n4cnc5c(=O)n6cc[nH]c6nc54)O[C@@H]3COP(=O)(S)OC[C@H]21` (single isomer, unassigned) [Example 5-1], the 50% inhibitory concentration (IC50) in assay [1] and in assay [3] was more than 100 µM throughout. The EC50 in assay [2] (Homo sapiens, THP1-Dual, 20 h) is more than 100 µM; in assay [4] (Homo sapiens, THP1-Dual, 20 h), more than 100 µM.

Turning to `Nc1ncnc2c1ncn2[C@@H]1O[C@@H]2COP(=O)(S)OC[C@@H]3[C@@H](COP(=O)(S)O[C@H]2[C@H]1F)C[C@H]3n1cnc2c1ncn1ccnc21` (single isomer, unassigned) [Example 3-2], the IC50 was 0.03 µM in assay [1] and 1.49 µM in assay [3]. Further, the EC50 in assay [2] (20 hours) was determined as 42.6 µM; in assay [4] (20 hours), 26.6 µM.

On to `Nc1ncnc2c1ncn2[C@@H]1C[C@@H]2COP(=O)(O)O[C@H]3[C@@H](F)[C@H](n4cnc5c4ncn4ccnc54)O[C@@H]3COP(=O)(O)OC[C@H]21` [Example 16, (1R,6S,8R,9R,15R,17R,18R)-8-(6-amino-9H-purin-9-yl)-18-fluoro-3,12-dihydroxy-17-{3H-imidazo[2,1-f]purin-3-yl}-2,4,11,13,16-pentaoxa-3λ^5,12λ^5-diphosphatricyclo[13.3.0.0^6,9]octa-decane-3,12-dione], for which the IC50 in assay [1] stood at 0.02 µM; in assay [3], 4.66 µM. The EC50 in assay [2] (Homo sapiens, THP1-Dual, 20 h) came out at 72.8 µM; in assay [4] (Homo sapiens, THP1-Dual, 20 h) it was 23.9 µM.

In the case of `O=P1(S)OC[C@@H]2[C@@H](COP(=O)(S)O[C@H]3[C@@H](F)[C@H](n4cnc5c4ncn4ccnc54)O[C@@H]3CO1)C[C@H]2n1cnc2c(Cl)ncnc21` (single isomer, unassigned) [Example 18-4], the concentration for half-maximal inhibition (IC50) in assay [1] worked out at 2.18 µM; in assay [3] it was 24.5 µM. For the same compound, the 50% effective concentration (EC50) in assay [2] (20 hours) and in assay [4] (20 hours) was more than 100 µM throughout.

Regarding `Nc1ncnc2c1ncn2[C@@H]1C[C@@H]2COP(=O)(S)O[C@@H]3[C@H](F)[C@@H](COP(=O)(S)OC[C@H]21)O[C@H]3n1cnc2c1ncn1ccnc21` (single isomer, unassigned) [Example 8-4], the IC50 amounted to 0.08 µM in assay [1] and 0.35 µM in assay [3]. The figures for the half-maximal effective concentration (EC50) in assay [2] (20 hours) and in assay [4] (20 hours) were 32.4 µM and 26.1 µM, respectively.

For the compound `NC(=O)c1cc([C@@H]2O[C@@H]3COP(=O)(S)OC[C@@H]4[C@@H](COP(=O)(S)O[C@@H]2[C@@H]3O)C[C@H]4n2cnc3c(N)ncnc32)ccn1` (single isomer, unassigned) [Example 20-4], the IC50 in assay [1] is 35.7 µM; in assay [3] it was more than 100 µM. Besides, the EC50 in assay [2] (20 hours) and in assay [4] (20 hours) was more than 100 µM in each case.

Turning to `Nc1ncnc2c1ncn2[C@@H]1O[C@@H]2COP(=O)(S)OC[C@@H]3[C@@H](COP(=O)(S)O[C@H]2[C@H]1F)C[C@H]3n1cnc2c(=O)n3cnnc3[nH]c21` (single isomer, unassigned) [Example 21-2], the IC50 in assay [1] was 0.2 µM; in assay [3], 6.97 µM. Further, the EC50 in assay [2] (20 hours) and in assay [4] (20 hours) was more than 100 µM throughout.

Regarding `Nc1ncnc2c1ncn2[C@@H]1C[C@@H]2COP(=O)(S)O[C@@H]3[C@H](F)[C@@H](COP(=O)(S)OC[C@H]21)O[C@H]3n1cnc2c(=O)n3cc[nH]c3nc21` (single isomer, unassigned) [Example 6-2], the IC50 in assay [1] was determined as 0.01 µM; in assay [3], 0.13 µM. The EC50 came out at 6.99 µM in assay [2] (20 hours) and 3.18 µM in assay [4] (20 hours).

Consider `NC(=O)c1cc([C@@H]2C[C@@H]3COP(=O)(S)OC[C@@H]4[C@@H](COP(=O)(S)OC[C@H]32)C[C@H]4n2cnc3c(N)ncnc32)ccn1` (single isomer, unassigned) [Example 15-1], for which the IC50 in assay [1] and in assay [3] was more than 100 µM in each case. Further, the EC50 in assay [2] (Homo sapiens, THP1-Dual, 20 h) is more than 100 µM; in assay [4] (Homo sapiens, THP1-Dual, 20 h) it was more than 100 µM.

Turning to `Nc1ncnc2c1ncn2[C@@H]1O[C@@H]2COP(=O)(S)OC[C@@H]3[C@@H](COP(=O)(S)O[C@H]2[C@H]1F)C[C@H]3n1cnc2c(=O)n3cnnc3[nH]c21` (single isomer, unassigned) [Example 21-1], the IC50 was found to be 0.004 µM in assay [1] and 0.15 µM in assay [3]. Further, the EC50 in assay [2] (20 hours) came out at 25 µM; in assay [4] (20 hours), 5.36 µM.

Consider `Nc1ncnc2c1ncn2[C@@H]1O[C@@H]2COP(=O)(S)OC[C@@H]3[C@@H](COP(=O)(S)O[C@H]2[C@H]1F)C[C@H]3n1cnc2c(=O)[nH]cnc21` (single isomer, unassigned) [Example 22-4], for which the IC50 in assay [1] amounted to 0.01 µM; in assay [3], 0.12 µM. In addition, the values for the half-maximal effective concentration (EC50) in assay [2] (20 hours) and in assay [4] (20 hours) were 91.7 µM and 13 µM, respectively.

As to `Nc1ncnc2c1ncn2[C@@H]1C[C@@H]2COP(=O)(S)O[C@H]3[C@@H](F)[C@H](n4cnc5c4ncn4ccnc54)O[C@@H]3COP(=O)(S)OC[C@H]21` (single isomer, unassigned) [Example 17-2], the IC50 amounted to 0.46 µM in assay [1] and 39 µM in assay [3]. For the same compound, the EC50 in assay [2] (20 hours) and in assay [4] (20 hours) was more than 100 µM each time.

Consider `Nc1ncnc2c1ncn2[C@@H]1O[C@@H]2COP(=O)(S)OC[C@@H]3[C@@H](COP(=O)(S)O[C@H]2[C@H]1F)C[C@H]3n1cnc2c(O)n3ccnc3nc21` (single isomer, unassigned) [Example 1-2], for which the IC50 in assay [1] was 0.04 µM; in assay [3], 0.9 µM. Further, the EC50 in assay [2] (20 hours) turned out to be 54 µM; in assay [4] (20 hours), 31.3 µM.

For `NC(=O)c1cc([C@@H]2C[C@@H]3COP(=O)(S)O[C@H]4[C@@H](F)[C@H](n5cnc6c5ncn5ccnc65)O[C@@H]4COP(=O)(S)OC[C@H]32)ccn1` (stereo partly drawn) [Example 19, 4-[(1R,6S,8R,9S,15R,17R,18R)-18-fluoro-17-{3H-imidazo[2,1-f]purin-3-yl}-3,12-dioxo-3,12-disulfanyl-2,4,11,13,16-pentaoxa-3λ^5,12λ^5-diphosphatricyclo[13.3.0.0^6,9]octa-decan-8-yl]pyridine-2-carboxamide], the IC50 in assay [1] and in assay [3] was 0.01 µM each time. Further, the EC50 in assay [2] (Homo sapiens, THP1-Dual, 20 h) worked out at 2.38 µM; in assay [4] (Homo sapiens, THP1-Dual, 20 h) it was 0.97 µM.
